Data on nine molecules can be found in article PMC8151276, “An Integrated Approach toward NanoBRET Tracers for Analysis of GPCR Ligand Engagement” (Molecules, 2021).

SMILES strings stand for the structures.

Holding throughout (assay type): binding
One assay has as its target T1, DRD5 (Homo sapiens, UniProt P21918).
T1 construct: purchased Promega (in-house HiBiT-GPCR construct library, NanoBRET)
Briefly: NanoBRET screen HiBiT-DRD5 in HEK293. Here is the method: (§1) Each tracer candidate was screened across the entire library of HiBiT-GPCR constructs using NanoBRET as the detection modality. As depicted in Figure 4A, the specificity of interactions was evaluated through decrease in BRET due to competitive displacement of a bound tracer by excess parental compound. Each tracer was analyzed for binding to each HiBiT-GPCR fusion in the absence and in the presence of competing parental compound. Briefly, HEK293 cells were transfected with HiBiT-GPCR constructs diluted into promoterless DNA to reduce expression and maximize translocation to the cell surface. Each tracer candidate was then screened at concentrations of 1 μM and 0.1 μM across cells expressing these fusions. Cells were treated for 1.5 h with tracer either alone or in the presence of 20 μM competing parental compound (i.e., control). BRET was measured upon addition of purified LgBiT and subsequent complementation with HiBiT genetically fused to a GPCR. The specificity of interactions was assessed through a decrease in BRET signal due to competitive displacement of the bound tracer. To further gauge the robustness of these interactions, the fold response over the control (i.e., BRETtracer/BRETcontrol) was calculated. We chose a 1.5-fold response, which translates to ≥7-fold signal over noise as the minimal threshold required to score an interaction as positive. […]. Below we highlight the screening results obtained for our exemplary fluorescent tracers based on Clozapine, Amitriptyline and AZD1283.
(§2) HiBiT-GPCR DNA constructs were diluted in 10 mM Tris pH 8 to a final concentration of 0.01 μg/μL, arrayed in 96-well plates and stored at −20 °C. For transfection, HEK293 cells were suspended in Opti-MEM (without phenol red) supplemented with 2% fetal bovine serum (Seradigm) and 100 units/mL penicillin–streptomycin (Gibco) at a final concentration of 220,000 cells/mL and dispensed into white 96-well plates at 90 μL/well. Subsequent transfections and screens were carried using an Agilent Bravo Automated Liquid Handling Platform. First, the 96-well HiBiT DNA arrays were diluted 25-fold in Opti-MEM (without serum or phenol red) to a final concentration of 0.0004 μg/μL and 20 μL of the diluted DNAs were transferred into new 96-well plates. Next, promoterless carrier DNA (1 μg/μL) was diluted 25-fold (0.04 μg/μL) and then dispensed into the diluted arrays at 20 μL/well. Following brief mixing, Viafect transfection reagent (Promega) diluted 16-fold into Opti-MEM was dispensed into the plates at 40 μL/well. After mixing by pipetting, plates were incubated for 10 min on the pipetting station deck. The DNA-transfection reagent complexes were then added to plates containing cells. To facilitate the screen, 10 μL of DNA-transfection reagent complexes were added in duplicates to the top 4 and bottom 4 rows, resulting in two identical 48-well arrays per plate. Plates with transfected cells were incubated for 18–20 h at 37 °C/5% CO2. A screen of each tracer across the entire library using two different concentrations requires duplicate plates of transfected cells. Depending on the number of tracers being screened, transfections can be scaled up using the same ratios. The next day, for each tracer, four 20× screening solutions in tracer dilution buffer (Promega) were prepared: two duplicates at final concentration of 20 μM and two duplicates at a final concentration of 2 μM. A competing unmodified compound was added to one of each duplicate at a final concentration of 400 μM. The four resulting solutions were diluted 4-fold in Opti-MEM without serum or phenol red to generate 5× solutions (5 µM and 0.5 µM tracer +/− 100 μM competing compound). To screen the library, a BioTek MultiFlo FX liquid dispenser was used to dispense 22.5 µL of tracer solution to the top 4 rows and 22.5 µL tracer + competing compound solution to the 4 bottom rows. Plates were briefly mixed on an orbital shaker and incubated for 1.5 h at room temperature. […]
(In BRET a luciferase serves as donor, and the signal depends on an acceptor being close.)

Another assay concerns the target T2, P2RY1 (Homo sapiens, UniProt P47900).
T2 construct: purchased Promega (in-house HiBiT-GPCR construct library, NanoBRET)
Put plainly: NanoBRET screen HiBiT-P2RY1 in HEK293. Here is the method: as §1, §2

In another assay the target is T3, P2RY14 (Homo sapiens, UniProt Q15391).
T3 construct: purchased Promega (in-house HiBiT-GPCR construct library, NanoBRET)
T3 sequence (Q15391 1-338): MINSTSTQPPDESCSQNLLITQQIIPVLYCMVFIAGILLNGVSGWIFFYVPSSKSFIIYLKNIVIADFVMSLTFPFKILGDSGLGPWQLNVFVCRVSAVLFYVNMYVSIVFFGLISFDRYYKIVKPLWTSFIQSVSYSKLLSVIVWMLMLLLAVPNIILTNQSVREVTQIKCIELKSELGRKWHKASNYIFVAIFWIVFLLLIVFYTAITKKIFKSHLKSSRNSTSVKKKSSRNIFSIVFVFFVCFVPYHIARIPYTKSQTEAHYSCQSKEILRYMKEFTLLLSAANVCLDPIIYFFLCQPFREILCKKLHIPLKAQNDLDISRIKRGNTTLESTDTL
Put plainly: NanoBRET screen HiBiT-P2RY14 in HEK293. The protocol: as §1, §2

Where [1] appears, read: tracer at 0.1μM, listed as amitriptyline-b-2-NB590.
Setting [2] is: tracer at 1μM, listed as amitriptyline-b-2-NB590.

T2 sequence (P47900 whole entry): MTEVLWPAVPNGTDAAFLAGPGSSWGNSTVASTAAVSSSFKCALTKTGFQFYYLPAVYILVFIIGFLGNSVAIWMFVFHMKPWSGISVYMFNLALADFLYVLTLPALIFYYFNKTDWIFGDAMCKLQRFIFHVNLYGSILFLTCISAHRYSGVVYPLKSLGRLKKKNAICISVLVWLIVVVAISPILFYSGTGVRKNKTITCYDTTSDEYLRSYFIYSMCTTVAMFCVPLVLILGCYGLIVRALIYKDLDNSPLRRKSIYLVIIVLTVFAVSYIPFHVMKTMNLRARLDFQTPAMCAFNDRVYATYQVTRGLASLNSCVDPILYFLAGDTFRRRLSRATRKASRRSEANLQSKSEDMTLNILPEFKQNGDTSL
T1 sequence (P21918 whole entry): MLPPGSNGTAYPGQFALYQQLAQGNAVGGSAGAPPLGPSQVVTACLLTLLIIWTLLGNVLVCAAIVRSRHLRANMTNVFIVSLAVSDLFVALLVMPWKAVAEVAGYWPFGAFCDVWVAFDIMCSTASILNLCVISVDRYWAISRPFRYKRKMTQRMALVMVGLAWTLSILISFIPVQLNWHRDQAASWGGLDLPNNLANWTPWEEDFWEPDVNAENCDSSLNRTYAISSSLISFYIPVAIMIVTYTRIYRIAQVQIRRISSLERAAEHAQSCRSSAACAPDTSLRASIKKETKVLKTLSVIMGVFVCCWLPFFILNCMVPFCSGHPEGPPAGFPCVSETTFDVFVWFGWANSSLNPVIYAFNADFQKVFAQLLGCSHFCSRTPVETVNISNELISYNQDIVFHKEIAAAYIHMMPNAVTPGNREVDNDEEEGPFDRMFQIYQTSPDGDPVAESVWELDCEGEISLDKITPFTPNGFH

As for `COc1ccccc1N1CCN(CCCCN2C(=O)c3ccc(CNC(=O)CCOCCNC(=O)c4ccc(CNC(=O)CCc5ccc6n5[B-](F)(F)[N+]5=C(c7ccc[nH]7)C=CC5=C6)cc4)cc3C2=O)CC1` [NAN-190-3-NB590], the “NanoBRET Fold Response” value at DRD5 (DRD5, tracer 0.1μM) came to 1.05; at DRD5 (DRD5, tracer 1μM), 1.42; on P2RY1 (P2RY1, tracer 0.1μM) it was 0.97; on P2RY1 (P2RY1, tracer 1μM), 1.00; on P2RY14 (P2RY14, tracer 0.1μM) it was 0.95; at P2RY14 (P2RY14, tracer 1μM), 1.06.

As for `N#CN=C(NCCCOc1cccc(CN2CCCCC2)c1)NCCNC(=O)CCOCCOCCOCCOCCNC(=O)CCc1ccc2n1[B-](F)(F)[N+]1=C(c3ccc[nH]3)C=CC1=C2` [Aminopotentidine-2-NB590], the “NanoBRET Fold Response” value at DRD5 (DRD5, tracer 0.1μM) was 1.02; on DRD5 (DRD5, tracer 1μM), 1.01; at P2RY1 (P2RY1, tracer 0.1μM) it was 1.02; on P2RY1 (P2RY1, tracer 1μM), 1.02; at P2RY14 (P2RY14, tracer 0.1μM), 0.98; on P2RY14 (P2RY14, tracer 1μM), 0.91.

For the molecule `CN(C)CCC=C1c2ccccc2CCc2ccc(C(=O)NCCNC(=O)CCOCCOCCOCCOCCNC(=O)CCc3ccc4n3[B-](F)(F)[N+]3=C(c5ccc[nH]5)C=CC3=C4)cc21` [Amitriptyline-b-2-NB590], the “NanoBRET Fold Response” value is listed as 1.08 on DRD5 (setting [1]); 1.42 on DRD5 (setting [2]); 1.13 on P2RY1 (setting [1]); 1.12 at P2RY14 (setting [1]); 0.77 at P2RY14 (setting [2]).

Turning to `COc1ccccc1N1CCN(CCCCN2C(=O)c3ccc(CNC(=O)CCOCCOCCOCCOCCNC(=O)CCc4ccc5n4[B-](F)(F)[N+]4=C(c6ccc[nH]6)C=CC4=C5)cc3C2=O)CC1` [NAN-190-2-NB590], the “NanoBRET Fold Response” value came out at 1.02 on DRD5 (DRD5, tracer 0.1μM); 1.21 on DRD5 (DRD5, tracer 1μM); 0.97 on P2RY1 (P2RY1, tracer 0.1μM); 1.02 on P2RY14 (P2RY14, tracer 0.1μM).

Take `O=C(CCOCCOCCOCCOCCNC(=O)CCc1ccc2n1[B-](F)(F)[N+]1=C(c3ccc[nH]3)C=CC1=C2)NCCCN1CCN(C2=Nc3ccccc3Oc3ccc(Cl)cc32)CC1` [Loxapine-a-2-NB590]: the “NanoBRET Fold Response” value at DRD5 (DRD5, tracer 0.1μM) came to 1.25; at DRD5 (DRD5, tracer 1μM), 2.20; on P2RY1 (P2RY1, tracer 0.1μM), 1.01; on P2RY1 (P2RY1, tracer 1μM), 0.97; at P2RY14 (P2RY14, tracer 0.1μM) it was 0.94; at P2RY14 (P2RY14, tracer 1μM) it was 0.98.

Regarding `CN(CCC=C1c2ccccc2CCc2ccccc21)C(=O)CCOCCOCCOCCOCCNC(=O)CCc1ccc2n1[B-](F)(F)[N+]1=C(c3ccc[nH]3)C=CC1=C2` [Amitriptyline-e-2-NB590], the results for the “NanoBRET Fold Response” value at DRD5 (tracer at 1μM), at P2RY1 (tracer at 1μM) and on P2RY14 (tracer at 1μM) were 1.11, 0.96 and 1.03, respectively.

Take `CCCn1c(=O)c2[nH]c(-c3ccc(OCC(=O)NCCNC(=O)CCOCCNC(=O)c4ccc(CNC(=O)CCc5ccc6n5[B-](F)(F)[N+]5=C(c7ccc[nH]7)C=CC5=C6)cc4)cc3)nc2n(CCC)c1=O` [XAC-3-NB590]: the “NanoBRET Fold Response” value at DRD5 (DRD5, tracer 0.1μM) is 0.99; at DRD5 (DRD5, tracer 1μM), 1.00; on P2RY1 (P2RY1, tracer 0.1μM) it was 1.05; at P2RY1 (P2RY1, tracer 1μM), 0.96; on P2RY14 (P2RY14, tracer 0.1μM), 0.59; on P2RY14 (P2RY14, tracer 1μM), 1.36.

As to `CN(C)CCC=C1c2ccccc2CCc2ccc(C(=O)NCCNC(=O)CCOCCOCCOCCOCCNC(=O)CCc3ccc4n3[B-](F)(F)[N+]3=C(c5ccc[nH]5)C=CC3=C4)cc21` [Amitriptyline-a-2-NB590], the “NanoBRET Fold Response” value on DRD5 (tracer at 0.1μM) is 1.11; at DRD5 (tracer at 1μM), 1.12; on P2RY1 (tracer at 0.1μM) it was 0.97; at P2RY1 (tracer at 1μM), 1.01; at P2RY14 (tracer at 1μM), 1.09.

Turning to `CCOC(=O)c1cc(C#N)c(N2CCC(C(=O)NS(=O)(=O)Cc3ccccc3/C=C/C(=O)NCCNC(=O)CCc3ccc4n3[B-](F)(F)[N+]3=C(c5ccc[nH]5)C=CC3=C4)CC2)nc1C` [AZD1283-1-NB590], the “NanoBRET Fold Response” value on DRD5 (DRD5, 0.1μM) was 1.02; at DRD5 (DRD5, 1μM), 1.13; on P2RY1 (P2RY1, 0.1μM) it was 1.06; on P2RY1 (P2RY1, 1μM), 1.05; on P2RY14 (P2RY14, 0.1μM), 1.14; at P2RY14 (P2RY14, 1μM) it was 1.18.
